Laboratory results from patent US9765039B2, “Biaryl derivatives as bromodomain inhibitors” (Zenith Epigenetics Ltd., priority 2012, dated 2017).

Key:
hApoA-1 mRNA = assay: Up-regulation of hApoA-1 mRNA transcription in Huh7 cells; format: cell-based, human; parameters: key: Active: Compounds with an EC170 value less than 30 μM are deemed to be active.; Not Active: Compounds with an EC170 value less than 30 μM are deemed to be active; conditions: 48 hrs treatment, ApoA-I mRNA
Procedure: In this example, ApoA-I mRNA in tissue culture cells was quantitated to measure the transcriptional up-regulation of ApoA-I when treated with a compound of the present disclosure.
Huh7 cells ([…] per well) were plated in a 96-well plate using 100 μL DMEM per well, (Gibco DMEM supplemented with penicillin/streptomycin and 10% FBS), 24 h before the addition of the compound of interest. After 48 hrs treatment, the spent media was removed from the Huh-7 cells and placed on ice (for immediate use) or at −80° C. (for future use) with the “LDH cytotoxicity assay Kit II” from Abcam. The cells remaining in the plate were rinsed with 100 μL PBS.
Then 85 μL of cell lysis solution was added to each well and incubated for 5-10 minutes at room temperature, to allow for complete cell lysis and detachment. mRNA was then prepared using the “mRNA Catcher PLUS plate” from Life Technologies, according to the protocol supplied. After the last wash, as much wash buffer as possible was aspirated without allowing the wells to dry. Elution Buffer (E3, 80 μL) was then added to each well. mRNA was then eluted by incubating the mRNA Catcher PLUS plate with Elution Buffer for 5 minutes at 68° C., and then 1 minute at 4° C. Catcher plates with mRNA eluted were kept on ice for use or stored at −80° C.
The eluted mRNA isolated was then used in a one-step real-time PCR reaction, using components of the Ultra Sense Kit together with Life Technologies primer-probe mixes. Real-time PCR data was analyzed, using the Ct values, to determine the fold induction of each unknown sample, relative to the control (that is, relative to the control for each independent DMSO concentration).
Compounds with an EC170 value less than 30 μM are deemed to be active.

Human AML MV-4-11 cells = assay: Inhibition of cell proliferation in cancer cell lines (CellTiter Aqueous One); format: cell-based; parameters: key: Active: Compounds with an IC50 value less than 30 μM were deemed to be active.; Not Active: Compounds with an IC50 value less than 30 μM were deemed to be active; conditions: 72 hours
Procedure: MV4-11 cells: 96-well plates were seeded with 5×10^4 cells per well of exponentially growing human AML MV-4-11 (CRL-9591) cells and immediately treated with two-fold dilutions of test compounds, ranging from 30 μM to 0.2 μM. Triplicate wells were used for each concentration, as well as a media only and three DMSO control wells. The cells and compounds were incubated at 37° C., 5% CO2 for 72 hours before adding 20 μL of the CellTiter Aqueous One Solution (Promega) to each well and incubating at 37° C., 5% CO2 for an additional 3-4 hours. The absorbance was taken at 490 nm in a spectrophotometer and the percentage of proliferation relative to DMSO-treated cells was calculated after correction from the blank well. IC50 were calculated using the GraphPad Prism software.

c-myc = assay: Inhibition of c-myc expression in cancer cell lines (mRNA, real-time PCR); format: cell-based; parameters: key: Active: Compounds with an IC50 value less than 30 μM were deemed to be active; conditions: Human AML MV4-11 cells, 3 hours
Procedure: MV4-11 cells (2.5×10^4 cells) were plated in 96 well U-bottom plates with test compound or DMSO (0.1%), and incubated for 3 hours at 37° C. Cells were then harvested by centrifugation, lysed, and mRNA was isolated using the mRNA catcher plus kit (Invitrogen). Reverse transcription of the mRNA and duplex amplification of the c-myc and cyclophilin cDNAs was performed using the RNA Ultrasense kit (Invitrogen) and a ViiA7 real-time PCR machine (Applied Biosystems). IC50 values were determined from a dose response curve.

Brd4 bromodomain 1 = target: T1, Brd4 bromodomain 1 (Homo sapiens, UniProt O60885); assay: Inhibition of tetra-acetylated histone H4 binding to BET bromodomains (TR-FRET); parameters: key: Active: Compounds with an IC50 value less than 30 μM were deemed to be active.; Not Active: Compounds with an IC50 value less than 30 μM were deemed to be active; conditions: first bromodomain of Brd4, tetra-acetylated histone H4 peptide
T1 construct: made in house; host or cells: E. coli BL21(DE3)
Procedure: Proteins were cloned and overexpressed with a N-terminal 6×His tag, then purified by nickel affinity followed by size exclusion chromatography. Briefly, E. coli BL21(DE3) cells were transformed with a recombinant expression vector encoding N-terminally Nickel affinity tagged bromodomains from Brd2, Brd3, Brd4. Cell cultures were incubated at 37° C. with shaking to the appropriate density and induced overnight with IPTG. The supernatant of lysed cells was loaded onto Ni-IDA column for purification. Eluted protein was pooled, concentrated and further purified by size exclusion chromatography. Fractions representing monomeric protein were pooled, concentrated, aliquoted, and frozen at −80° C. for use in subsequent experiments.
Binding of tetra-acetylated histone H4 and BET bromodomains was confirmed by a Time Resolved Fluorescence Resonance Energy Transfer (TR-FRET) method. N-terminally His-tagged bromodomains (200 nM) and biotinylated tetra-acetylated histone H4 peptide (25-50 nM, Millipore) were incubated in the presence of Europium Cryptate-labeled streptavidin (Cisbio Cat. #610SAKLB) and XL665-labeled monoclonal anti-His antibody (Cisbio Cat. #61HISXLB) in a white 96 well microtiter plate (Greiner). For inhibition assays, serially diluted test compound was added to these reactions in a 0.2% final concentration of DMSO. Final buffer concentrations were 30 mM HEPES pH 7.4, 30 mM NaCl, 0.3 mM CHAPS, 20 mM phosphate pH 7.0, 320 mM KF, 0.08% BSA). After 2 hours incubation at room temperature, the fluorescence by FRET was measured at 665 and 620 nm by a SynergyH4 plate reader (Biotek). Illustrative results with the first bromodomain of Brd4 are shown below (Table 1). The binding inhibitory activity was shown by a decrease in 665 nm fluorescence relative to 620 nm. IC50 values were determined from a dose response curve.

hIL-6 mRNA = assay: Inhibition of hIL-6 mRNA transcription in LPS-stimulated U937 macrophages; format: cell-based, human; parameters: key: Active: Compounds with an IC50 value less than 30 μM are deemed to be active; conditions: U937 differentiated into macrophages, 1 h pretreatment, lipopolysaccharide 3 h
Procedure: In this example, hIL-6 mRNA in tissue culture cells was quantitated to measure the transcriptional inhibition of hIL-6 when treated with a compound of the present disclosure.
A human leukemic monocyte lymphoma cell line (U937) was plated (3.2×10^4 cells per well) in a 96-well plate in 100 μL RPMI-1640 containing 10% FBS and penicillin/streptomycin, and differentiated into macrophages for 3 days in 60 ng/mL PMA ([…]) at 37° C. in 5% CO2 prior to the addition of the compound of interest. The cells were pretreated for 1 h with the test compound prior to stimulation with […] lipopolysaccharide from Escherichia coli. The cells were incubated at 37° C. for 3 h before the cells were harvested. At time of harvest, the spent media was removed from the cells and the cells were rinsed in 200 μL PBS. Cell lysis solution (70 μL) was added the cells in each well and incubated for 5-10 min at room temperature, to allow for complete cell lysis and detachment. mRNA was then prepared using the “mRNA Catcher PLUS plate” (Invitrogen), according to the protocol supplied. After the last wash, as much wash buffer as possible was aspirated without allowing the wells to dry. Elution buffer (E3, 70 μL) was then added to each well. mRNA was then eluted by incubating the mRNA Catcher PLUS plate with Elution Buffer for 5 min at 68° C. and then immediately placing the plate on ice.
The eluted mRNA isolated was then used in a one-step quantitative real-time PCR reaction, using components of the Ultra Sense Kit together with Applied Biosystems primer-probe mixes. Real-time PCR data was analyzed, normalizing the Ct values for hIL-6 to an internal control, prior to determining the fold induction of each unknown sample, relative to the control.

COc1cc(OC)c2c(=O)[nH]c(-c3ccc(OCCO)c(-c4ccc(C(=O)N(C)C)cc4C)n3)nc2c1 [Example 3, 4-(6-(5,7-Dimethoxy-4-oxo-3,4-dihydroquinazolin-2-yl)-3-(2-hydroxyethoxy)pyridin-2-yl)-N,N,3-trimethylbenzamide]
ApoA-1 Activity (EC170 < 30 μM) (hApoA-1 mRNA): Active | cell proliferation activity (IC50 < 30 μM) (Human AML MV-4-11 cells): Not Active | c-myc activity (IC50 < 30 μM) (c-myc): Not Active | FRET activity (IC50 < 30 μM) (Brd4 bromodomain 1): Active | IL-6 activity (IC50 < 30 μM) (hIL-6 mRNA): Active

COc1cc(OC)c2c(=O)[nH]c(-c3cccc(-c4ccc([S+](C)[O-])s4)c3)nc2c1 (centres unmarked) [Example 51, 5,7-Dimethoxy-2-(3-(5-(methylsulfinyl)thiophen-2-yl)phenyl)quinazolin-4(3H)-one]
cell proliferation activity (IC50 < 30 μM) (Human AML MV-4-11 cells): Not Active | melting point: 289 to 290 °C | c-myc activity (IC50 < 30 μM) (c-myc): Not Active | FRET activity (IC50 < 30 μM) (Brd4 bromodomain 1): Active | IL-6 activity (IC50 < 30 μM) (hIL-6 mRNA): Active

COc1cc(OC)c2c(=O)[nH]c(-c3cc(-c4ccc([S+](C)[O-])cc4)c4[nH]ccc4c3)nc2c1 (centres unmarked) [Example 52, 5,7-Dimethoxy-2-(7-(4-(methylsulfinyl)phenyl)-1H-indol-5-yl)quinazolin-4(3H)-one]
cell proliferation activity (IC50 < 30 μM) (Human AML MV-4-11 cells): Not Active | melting point: 316 °C (dec.) | c-myc activity (IC50 < 30 μM) (c-myc): Not Active | FRET activity (IC50 < 30 μM) (Brd4 bromodomain 1): Active | IL-6 activity (IC50 < 30 μM) (hIL-6 mRNA): Active

COc1cc(OC)c2c(=O)[nH]c(-c3ccc(OC)c(-c4ccc(C(=O)N(C)C)cc4C)n3)nc2c1 [Example 54, 4-(6-(5,7-Dimethoxy-4-oxo-3,4-dihydroquinazolin-2-yl)-3-methoxypyridin-2-yl)-N,N,3-trimethylbenzamide]
cell proliferation activity (IC50 < 30 μM) (Human AML MV-4-11 cells): Not Active | melting point: 248 to 251 °C | c-myc activity (IC50 < 30 μM) (c-myc): Not Active | FRET activity (IC50 < 30 μM) (Brd4 bromodomain 1): Active | IL-6 activity (IC50 < 30 μM) (hIL-6 mRNA): Active

COc1cc(OC)c2c(=O)[nH]c(-c3ccc(OC)c(-c4ccc(C(=O)N(C)C)cc4Cl)n3)nc2c1 [Example 56, 3-Chloro-4-(6-(5,7-dimethoxy-4-oxo-3,4-dihydroquinazolin-2-yl)-3-methoxypyridin-2-yl)-N,N-dimethylbenzamide]
cell proliferation activity (IC50 < 30 μM) (Human AML MV-4-11 cells): Not Active | melting point: 271 to 272 °C | c-myc activity (IC50 < 30 μM) (c-myc): Not Active | FRET activity (IC50 < 30 μM) (Brd4 bromodomain 1): Not Active | IL-6 activity (IC50 < 30 μM) (hIL-6 mRNA): Active

COc1ccc(-c2nc3cccc(OC)c3c(=O)[nH]2)nc1-c1ccc([S+](C)[O-])cc1 (centres unmarked) [Example 57, 5-Methoxy-2-(5-methoxy-6-(4-(methylsulfinyl)phenyl)pyridin-2-yl)quinazolin-4(3H)-one]
cell proliferation activity (IC50 < 30 μM) (Human AML MV-4-11 cells): Not Active | melting point: 308 to 310 °C | c-myc activity (IC50 < 30 μM) (c-myc): Not Active | FRET activity (IC50 < 30 μM) (Brd4 bromodomain 1): Active | IL-6 activity (IC50 < 30 μM) (hIL-6 mRNA): Active

COc1cc(OC)c2c(=O)[nH]c(-c3ccc(OC)c(-c4ccc(S(C)(=O)=O)cc4)n3)nc2c1 [Example 58, 5,7-Dimethoxy-2-(5-methoxy-6-(4-(methylsulfonyl)phenyl)pyridin-2-yl)quinazolin-4(3H)-one]
cell proliferation activity (IC50 < 30 μM) (Human AML MV-4-11 cells): Not Active | melting point: 279 to 281 °C | c-myc activity (IC50 < 30 μM) (c-myc): Not Active | FRET activity (IC50 < 30 μM) (Brd4 bromodomain 1): Active | IL-6 activity (IC50 < 30 μM) (hIL-6 mRNA): Active

COc1ccc2c(=O)[nH]c(-c3ccc(OCCO)c(-c4ccc([S+](C)[O-])cc4)n3)nc2c1 (centres unmarked) [Example 60, 2-(5-(2-Hydroxyethoxy)-6-(4-(methylsulfinyl)phenyl)pyridin-2-yl)-7-methoxyquinazolin-4(3H)-one]
cell proliferation activity (IC50 < 30 μM) (Human AML MV-4-11 cells): Not Active | melting point: 266 to 267 °C | c-myc activity (IC50 < 30 μM) (c-myc): Not Active | FRET activity (IC50 < 30 μM) (Brd4 bromodomain 1): Active | IL-6 activity (IC50 < 30 μM) (hIL-6 mRNA): Not Active

COc1cc(OC)c2c(=O)[nH]c(-c3ccc(OCC[N+]4([O-])CCCC4)c(-c4ccc(S(C)(=O)=O)cc4)n3)nc2c1 [Example 63, 1-(2-((6-(5,7-Dimethoxy-4-oxo-3,4-dihydroquinazolin-2-yl)-2-(4-(methylsulfonyl)phenyl)pyridin-3-yl)oxy)ethyl)pyrrolidine 1-oxide]
cell proliferation activity (IC50 < 30 μM) (Human AML MV-4-11 cells): Not Active | melting point: 167 to 170 °C | c-myc activity (IC50 < 30 μM) (c-myc): Not Active | FRET activity (IC50 < 30 μM) (Brd4 bromodomain 1): Active | IL-6 activity (IC50 < 30 μM) (hIL-6 mRNA): Active

COc1cccc2nc(-c3ccc(OCCNC(C)C)c(-c4ccc(S(C)(=O)=O)cc4)n3)[nH]c(=O)c12 [Example 64, 2-(5-(2-(Isopropylamino)ethoxy)-6-(4-(methylsulfonyl)phenyl)pyridin-2-yl)-5-methoxyquinazolin-4(3H)-one]
cell proliferation activity (IC50 < 30 μM) (Human AML MV-4-11 cells): Active | melting point: 222 to 223 °C | c-myc activity (IC50 < 30 μM) (c-myc): Active | FRET activity (IC50 < 30 μM) (Brd4 bromodomain 1): Active | IL-6 activity (IC50 < 30 μM) (hIL-6 mRNA): Active
